{"source": "patent US20070003621A1", "about": "“Dosage forms for movement disorder treatment” (Spherics, Inc., priority 2005, published 2007)", "origin": "cited, not measured here", "details": "doses of 400 mg per day"}
{"smiles": "C[C@@](Cc1ccc(O)c(O)c1)(NN)C(=O)O", "note": "[carbidopa]", "values": [{"measurement": "adverse effects", "value": "fails to elicit adverse effects"}]}
